# Assay results published in PMC6642116, “Structural and functional analyses of hepatitis B virus X protein BH3-like domain and Bcl-xL interaction” (Nature Communications, 2019).
# Tests used:
# [1] = tested on: HBV replication from pHBV1.3-Xnull replicon in HepG2 cells; experiment: HBV production rescue assay, PEP-1 delivered peptides; type: cell-based; conditions: HepG2 + pHBV1.3-Xnull, peptide/PEP-1, 48 h
# Excerpt: Fig. 3 The HBx-BH3-like domain is critical for HBV production in HepG2 cells. a–e C-terminal biotinylated HBx-aa113–135 peptides (both wild-type (WT) and the W120A/L123A double mutant) were delivered into HepG2 cells transfected with pHBV1.3-Xnull using PEP-1 nanoparticles (Methods) and analyzed by streptavidin-FITC (fluorescein isothiocyanate) for transfection efficiency (a). Scale bar is 50 μm. An unrelated 23-aa peptide was used as a control (Control). The intracellular expression levels of HBV core antigen (HBcAg (b) and the levels of HBV e-antigen (HBeAg) (c), HBV S-antigen (HBsAg) (d), and HBV DNA (e) in the culture medium collected from HepG2 cells were measured (Methods). The results are shown as fold change to the WT HBx-aa113–135 peptide (WT). f–i) HepG2 cells were co-transfected with pHBV1.3-Xnull and pTT22m-HBx-WT (WT), pHBV1.3-Xnull and pTT22m-HBx(W120A/L123A), or pHBV1.3-Xnull and the pTT22m vector control (Control). Intracellular expression levels of HBcAg (f) and the levels of HBeAg (g), HBsAg (h), and HBV DNA (i) in the culture medium from HepG2 cells were measured similarly. The results are shown as fold change to the combination of pHBV1.3-Xnull and pTT22m-HBx-WT (WT). Data shown represent mean ± SD. Significance is indicated on the top. **P < 0.01, ***P < 0.001, ****P < 0.0001; two-tailed unpaired t tests (n = 3 biologically independent samples). Source data are provided as a Source Data file
# HepG2 cells were grown in Dulbecco’s modified Eagle’s medium (DMEM) with 10% Gibco fetal bovine serum. C-terminal biotinylated-labeled HBx peptides were transfected into HepG2 cells by pep-1[16], a peptide carrier for the delivery of biologically active proteins into mammalian cells. HBx peptides and pep-1 were firstly dissolved in DMEM to 1 mg/ml, then adjusted to 500 µl DMEM to a final concentration of 100 µg/ml, and incubated at 37 °C for 30 min in the tube. The incubated peptide mixture was added into pre-seeded HepG2 cells in a 24-well plate and incubated for another 30 min, and then washed five times by phosphate-buffered saline (PBS) to remove the free peptides. The transfected C-terminal biotinylated HBx peptides were detected by using streptavidin-FITC (fluorescein isothiocyanate) equipment (Thermo Fisher Scientific) following the standard immunostaining methods.
# Transfection of plasmids into HepG2 cells was carried out using X-tremeGENE HP DNA Transfection Reagent (Roche), following the manufacturer’s protocol. A transfection efficiency of 20–30% could be achieved. Cells were pre-seeded 24 h before transfections. pHBV1.3-HBx-null plasmid was transfected into HepG2 cells for 6 h, then HBx-aa113–135, HBx-aa113–135-(W120A, L123A), or control peptide was transfected by pep-1 carrier and incubated for additional 48 h without the removal of peptides. The culture media of the HepG2 cells were harvest for analysis.
# (§1) The levels of HBsAg, HBeAg, and HBcAg expression were measured by chemiluminescence, using Commercial Assay Kit (Wantai, Beijing, China). Northern blot analysis of HBV RNA, Southern blot analysis of HBV DNA, and real-time PCR quantification of HBV DNA are described in the Supplementary Methods.
# HBV in HepG2-NTCP cells = experiment: Inhibition of HBV infection in HepG2-NTCP cells by HBx118–127; type: cell-based; conditions: unrelated control peptide, MOI 200, day 8
# Procedure: We took advantage of the structural information of the HBx-aa113–135/Bcl-xL complex to develop potential HBV inhibitors. […] BH3-only mimetics, […] and ABT-737, were included as controls. […] We also used HBV-infected HepG2-NTCP cells to evaluate the inhibitory effect of the HBx-aa118–127 peptide on HBV replication, by treating the cells with the peptide at 12.5, 50, and 200 µg/ml concentrations, respectively.
# Cytoplasmic HBV viral particles were isolated and the viral DNA replication intermediates were quantified (Methods). […] The lysate was analyzed by immunoblotting using antibodies to caspase-3 (CASP3) and GAPDH (glyceraldehyde 3-phosphate dehydrogenase). c, d The HBx-aa113–135, HBx-aa118–127, or the control peptides were delivered into HepG2.2.15 cells using PEP-1 nanoparticles (Methods). The levels of HBV DNA (c) and the levels of HBV S-antigen (HBsAg) expression (d) in culture medium collected from HepG2.2.15 cells were measured (Methods). […] Data shown represent mean ± SD. Significance is indicated on the top. Not significant (ns): *P < 0.05, **P < 0.01; two-tailed unpaired t tests (n = 3 biologically independent samples). Source data are provided as a Source Data file
# as §1
substance,measurement,setting,value
"SSTTSTGPCKTCTTPAQGTSMFP-K-biotin [Control, equal-length unrelated control biotin-labeled peptide]",HBcAg in cells,[1]; replicate 1,0.472 fold-change to WT
same,HBeAg in culture medium,[1]; replicate 1,0.329 fold-change to WT
same,HBsAg in culture medium,[1]; replicate 1,0.215 fold-change to WT
same,Secreted HBV DNA,[1]; replicate 1,990600 Copies/mL
same,HBcAg in cells,[1]; replicate 2,0.663 fold-change to WT
same,HBeAg in culture medium,[1]; replicate 2,0.389 fold-change to WT
same,HBsAg in culture medium,[1]; replicate 2,0.227 fold-change to WT
same,Secreted HBV DNA,[1]; replicate 2,564700 Copies/mL
same,HBcAg in cells,[1]; replicate 3,0.512 fold-change to WT
same,HBeAg in culture medium,[1]; replicate 3,0.344 fold-change to WT
same,HBsAg in culture medium,[1]; replicate 3,0.207 fold-change to WT
same,Secreted HBV DNA,[1]; replicate 3,887700 Copies/mL
same,"HBV DNA, HepG2-NTCP cell",HBV in HepG2-NTCP cells; replicate 1,0.996 fold-change to control
same,"HBeAg, HepG2-NTCP cell",HBV in HepG2-NTCP cells; replicate 1,1.091 fold-change to control
same,"HBV DNA, HepG2-NTCP cell",HBV in HepG2-NTCP cells; replicate 2,0.822 fold-change to control
same,"HBeAg, HepG2-NTCP cell",HBV in HepG2-NTCP cells; replicate 2,1.003 fold-change to control
same,"HBV DNA, HepG2-NTCP cell",HBV in HepG2-NTCP cells; replicate 3,1.182 fold-change to control
same,"HBeAg, HepG2-NTCP cell",HBV in HepG2-NTCP cells; replicate 3,0.906 fold-change to control
